Laboratory results as given in patent US12344597B2, “Alkoxy-substituted pyridinyl derivatives as LPA1 receptor antagonists and their use in the treatment of fibrosis” (IDORSIA PHARMACEUTICALS LTD, priority 2018, dated 2025).

Target: human LPA1 receptor (Homo sapiens (Human), UniProt Q92633)
Assay: Beta-arrestin recruitment assay to determine IC50 values for human LPAR1
Type: cell-based
Settings: antagonist mode, Tango EDG2-bla U2OS cells, LPA 18:1 500 nM final
Method in brief: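 Antagonist IC50 = concentration giving 50% inhibition of maximal LPA response. Read-out is beta-lactamase reporter activity after arrestin-protease recruitment in U2OS cells bearing LPA1-TEV-Gal4-VP16 construct; cells pre-incubated 20 h, 37 °C, 5% CO2.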

human LPA1 receptor, sequence (Q92633 whole entry): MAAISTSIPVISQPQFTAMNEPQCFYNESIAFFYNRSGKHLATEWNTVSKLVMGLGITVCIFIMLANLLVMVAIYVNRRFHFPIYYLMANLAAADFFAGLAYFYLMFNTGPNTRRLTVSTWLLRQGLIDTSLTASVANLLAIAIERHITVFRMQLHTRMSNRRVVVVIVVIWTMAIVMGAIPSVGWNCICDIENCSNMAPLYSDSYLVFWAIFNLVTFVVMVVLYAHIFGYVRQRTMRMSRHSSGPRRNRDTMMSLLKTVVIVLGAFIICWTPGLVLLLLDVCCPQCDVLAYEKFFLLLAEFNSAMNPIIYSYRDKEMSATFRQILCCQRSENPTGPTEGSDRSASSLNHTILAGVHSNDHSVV

Row | IC50 [nM] | Structure (SMILES)
1 | 26 | Cc1ccc(NC(=O)C2(c3ccccc3C(C)C)CN(C(=O)CC3(C(=O)O)COC3)C2)c(OC(F)F)n1 [Ex 12-98, 3-(2-(3-((2-(difluoromethoxy)-6-methylpyridin-3-yl)carbamoyl)-3-(2-isopropylphenyl)azetidin-1-yl)-2-oxoethyl)oxetane-3-carboxylic acid]
2 | 3 | CC(C)c1ccccc1C1(C(=O)Nc2ncc(Cl)cc2OC(F)F)CN(C(=O)NC2CC2)C1 [Ex 82-1, N3-(5-chloro-3-(difluoromethoxy)pyridin-2-yl)-N1-cyclopropyl-3-(2-isopropylphenyl)azetidine-1,3-dicarboxamide]
3 | 19 | Cc1ccc(NC(=O)C2(c3ccccc3C(C)C)CN(C(=O)CCC(C)(C)C(=O)O)C2)c(OC(F)F)n1 [Ex 12-103, 5-(3-((2-(difluoromethoxy)-6-methylpyridin-3-yl)carbamoyl)-3-(2-isopropylphenyl)azetidin-1-yl)-2,2-dimethyl-5-oxopentanoic acid]
4 | 49 | Cc1ccc(NC(=O)C2(c3ccccc3C(C)C)CN(S(=O)(=O)CCCS(=O)(=O)O)C2)c(OC(F)F)n1 [Ex 13-30, 3-((3-((2-(difluoromethoxy)-6-methylpyridin-3-yl)carbamoyl)-3-(2-isopropylphenyl)azetidin-1-yl)sulfonyl)propane-1-sulfonic acid]
5 | 17 | Cc1ccc(NC(=O)C2(c3ccccc3C(C)C)CN(Cc3cccc(C(=O)O)n3)C2)c(OC(F)F)n1 [Ex 11-46, 6-((3-((2-(difluoromethoxy)-6-methylpyridin-3-yl)carbamoyl)-3-(2-isopropylphenyl)azetidin-1-yl)methyl)picolinic acid]
6 | 225 | CC(=O)N1CCC(CC(=O)N2CC(C(=O)Nc3ccc(C)nc3OC(F)F)(c3ccccc3C(C)C)C2)CC1 [Ex 12-137, 1-(2-(1-acetylpiperidin-4-yl)acetyl)-N-(2-(difluoromethoxy)-6-methylpyridin-3-yl)-3-(2-isopropylphenyl)azetidine-3-carboxamide]
7 | 31 | COC(=O)c1cnc(N2CC(C(=O)Nc3ccc(C)nc3OC(F)F)(c3ccccc3C(C)C)C2)nc1 [Ex 18-4, methyl 2-(3-((2-(difluoromethoxy)-6-methylpyridin-3-yl)carbamoyl)-3-(2-isopropylphenyl)azetidin-1-yl)pyrimidine-5-carboxylate]
8 | 18 | CCOC(=O)C(F)(F)CC(=O)N1CC(C(=O)Nc2ccc(C)nc2OC(F)F)(c2ccccc2C(C)C)C1 [Ex 12-111, ethyl 4-(3-((2-(difluoromethoxy)-6-methylpyridin-3-yl)carbamoyl)-3-(2-isopropylphenyl)azetidin-1-yl)-2,2-difluoro-4-oxobutanoate]
9 | 30 | Cc1ccc(NC(=O)C2(c3ccccc3C(C)C)CCN(C(=O)CN(CCO)C(=O)OC(C)(C)C)CC2)c(OC(F)F)n1 [Ex 12-49, tert-butyl (2-(4-((2-(difluoromethoxy)-6-methylpyridin-3-yl)carbamoyl)-4-(2-isopropylphenyl)piperidin-1-yl)-2-oxoethyl)(2-hydroxyethyl)carbamate]
10 | 16 | CCOC(=O)CCN1CC(C(=O)Nc2ccc(C)nc2OC(F)F)(c2ccccc2C(C)C)C1 [Ex 11-13, ethyl 3-(3-((2-(difluoromethoxy)-6-methylpyridin-3-yl)carbamoyl)-3-(2-isopropylphenyl)azetidin-1-yl)propanoate]
11 | 56 | Cc1ccc(NC(=O)C2(c3ccccc3C(C)C)CN(C(=O)CC3(C(=O)O)CCN(C)CC3)C2)c(OC(F)F)n1 [Ex 12-124, 4-(2-(3-((2-(difluoromethoxy)-6-methylpyridin-3-yl)carbamoyl)-3-(2-isopropylphenyl)azetidin-1-yl)-2-oxoethyl)-1-methylpiperidine-4-carboxylic acid]
12 | 304 | COC(=O)Cn1cc(CN2CC(C(=O)Nc3ccc(C)nc3OC(F)F)(c3ccccc3C(C)C)C2)nn1 [Ex 11-48, methyl 2-(4-((3-((2-(difluoromethoxy)-6-methylpyridin-3-yl)carbamoyl)-3-(2-isopropylphenyl)azetidin-1-yl)methyl)-1H-1,2,3-triazol-1-yl)acetate]
13 | 165 | COCCN1CCC(CC(=O)N2CC(C(=O)Nc3ccc(C)nc3OC(F)F)(c3ccccc3C(C)C)C2)CC1 [Ex 12-139, N-(2-(difluoromethoxy)-6-methylpyridin-3-yl)-3-(2-isopropylphenyl)-1-(2-(1-(2-methoxyethyl)piperidin-4-yl)acetyl)azetidine-3-carboxamide]
14 | 36 | Cc1ccc(NC(=O)C2(c3ccccc3C(C)C)CN(C(=O)c3cn[nH]c3)C2)c(OC(F)F)n1 [Ex 12-15, N-(2-(difluoromethoxy)-6-methylpyridin-3-yl)-3-(2-isopropylphenyl)-1-(1H-pyrazole-4-carbonyl)azetidine-3-carboxamide]
15 | 10 | CC(C)c1ccccc1C1(C(=O)Nc2cccnc2OC(F)F)CN(S(N)(=O)=O)C1 [Ex 15-6, N-(2-(difluoromethoxy)pyridin-3-yl)-3-(2-isopropylphenyl)-1-sulfamoylazetidine-3-carboxamide]
16 | 61 | Cc1ccc(NC(=O)C2(c3ccccc3C(C)C)CN(C(=O)C[C@@H]3COCCN3)C2)c(OC(F)F)n1 [Ex 12-45, (R)-N-(2-(difluoromethoxy)-6-methylpyridin-3-yl)-3-(2-isopropylphenyl)-1-(2-(morpholin-3-yl)acetyl)azetidine-3-carboxamide]
17 | 8 | CCCc1ccccc1C1(C(=O)Nc2ccc(C)nc2OC(F)F)CN(C(=O)CC(C)(C)C(=O)O)C1 [Ex 31-7, 4-(3-((2-(difluoromethoxy)-6-methylpyridin-3-yl)carbamoyl)-3-(2-propylphenyl)azetidin-1-yl)-2,2-dimethyl-4-oxobutanoic acid]
18 | 5 | CCOC(=O)CNS(=O)(=O)N1CC(C(=O)Nc2ccc(C)nc2OC(F)F)(c2ccccc2C(C)C)C1 [Ex 15-1, Ethyl ((3-((2-(difluoromethoxy)-6-methylpyridin-3-yl)carbamoyl)-3-(2-isopropylphenyl)azetidin-1-yl)sulfonyl)glycinate]
19 | 33 | Cc1ccc(NC(=O)C2(c3ccccc3C(C)C)CN(C(=O)CCC(=O)O)C2)c(OC(C)C)n1 [Ex 12-68, 4-(3-((2-isopropoxy-6-methylpyridin-3-yl)carbamoyl)-3-(2-isopropylphenyl)azetidin-1-yl)-4-oxobutanoic acid]
20 | 14 | Cc1ccc(NC(=O)C2(c3ccccc3C(C)C)CN(S(=O)(=O)/C=C/C(=O)O)C2)c(OC(F)F)n1 [Ex 13-21, (E)-3-((3-((2-(difluoromethoxy)-6-methylpyridin-3-yl)carbamoyl)-3-(2-isopropylphenyl)azetidin-1-yl)sulfonyl)acrylic acid]
21 | 35 | CONC(=O)CC(=O)N1CC(C(=O)Nc2ccc(C)nc2OC(F)F)(c2ccccc2C(C)C)C1 [Ex 12-125, N-(2-(difluoromethoxy)-6-methylpyridin-3-yl)-3-(2-isopropylphenyl)-1-(3-(methoxyamino)-3-oxopropanoyl)azetidine-3-carboxamide]
22 | 52 | Cc1ccc(NC(=O)C2(c3ccccc3C(C)C)CN(CCC3(C(=O)O)CC3)C2)c(OC(F)F)n1 [Ex 11-72, 1-(2-(3-((2-(difluoromethoxy)-6-methylpyridin-3-yl)carbamoyl)-3-(2-isopropylphenyl)azetidin-1-yl)ethyl)cyclopropane-1-carboxylic acid]
23 | 30 | Cc1ccc(NC(=O)C2(c3ccccc3C(C)C)CN(C(=O)[C@H](O)[C@@H](O)C(=O)O)C2)c(OC(F)F)n1 [Ex 12-118, (2R,3R)-4-(3-((2-(difluoromethoxy)-6-methylpyridin-3-yl)carbamoyl)-3-(2-isopropylphenyl)azetidin-1-yl)-2,3-dihydroxy-4-oxobutanoic acid]
24 | 2 | Cc1ccc(NC(=O)C2(c3ccccc3C(C)C)CCN(C(=O)Cn3cnnn3)CC2)c(OC(F)F)n1 [Ex 12-20, 1-(2-(1H-tetrazol-1-yl)acetyl)-N-(2-(difluoromethoxy)-6-methylpyridin-3-yl)-4-(2-isopropylphenyl)piperidine-4-carboxamide]
25 | 640 | CC(=O)N(CCC(=O)N1CC(C(=O)Nc2ccc(C)nc2OC(F)F)(c2ccccc2C(C)C)C1)OCc1ccccc1 [Ex 12-131, 1-(3-(N-(benzyloxy)acetamido)propanoyl)-N-(2-(difluoromethoxy)-6-methylpyridin-3-yl)-3-(2-isopropylphenyl)azetidine-3-carboxamide]
26 | 605 | COc1ccc(NC(=O)C2(c3ccccc3C(C)C)CN(C(=O)OC(C)(C)C)C2)c(OC)n1 [Ex 6-1, tert-butyl 3-((2,6-dimethoxypyridin-3-yl)carbamoyl)-3-(2-isopropylphenyl)azetidine-1-carboxylate]
27 | 48 | Cc1ccc(NC(=O)C2(c3ccccc3C(C)C)CN(C(=O)N[C@@H](C)C(=O)O)C2)c(OC(F)F)n1 [Ex 17-9, (3-((2-(difluoromethoxy)-6-methylpyridin-3-yl)carbamoyl)-3-(2-isopropylphenyl)azetidine-1-carbonyl)-L-alanine]
28 | 43 | Cc1ccc(NC(=O)C2(c3ccccc3C(C)C)CN(Cc3cccn3CC(=O)O)C2)c(OC(F)F)n1 [Ex 11-42, 2-(2-((3-((2-(difluoromethoxy)-6-methylpyridin-3-yl)carbamoyl)-3-(2-isopropylphenyl)azetidin-1-yl)methyl)-1H-pyrrol-1-yl)acetic acid]
29 | 46 | Cc1ccc(NC(=O)C2(c3ccccc3C(C)C)CN(CC3(C(=O)O)COC3)C2)c(OC(F)F)n1 [Ex 11-91, 3-((3-((2-(difluoromethoxy)-6-methylpyridin-3-yl)carbamoyl)-3-(2-isopropylphenyl)azetidin-1-yl)methyl)oxetane-3-carboxylic acid]
30 | 51 | Cc1ccc(NC(=O)C2(c3c(C)cccc3C(C)C)CN(C(=O)CC(C)(C)C(=O)O)C2)c(OC(F)F)n1 [Ex 39-1, 4-(3-((2-(difluoromethoxy)-6-methylpyridin-3-yl)carbamoyl)-3-(2-isopropyl-6-methylphenyl)azetidin-1-yl)-2,2-dimethyl-4-oxobutanoic acid]
